Experimental findings from patent US6933315B2, “Derivatives of isoindigo, indigo and indirubin and methods of treating cancer” (priority 2001, dated 2005) are described below.

Read-outs that look alike come from different tables or passages of the source.

For one data set, the system named is DU145. Nature of the data set: Growth inhibition by MTT, DU145 prostate cancer cells. Type of data set: cell-based, Human. The following applies: read-out: IC50 DU145. Here is the method: (§1) Growth inhibitory effects of NATURA and other agents on human cancer cells were determined by standard MTT (3-(4,5-dimethylthiazol-2-yl)-2,5-diphenyltetrazolium bromide Test) as described previously. Briefly, cancer cells grown exponentially were aliquoted into 96-well plates at a density of 5000 cells/200 μl per well in RPMI 1640 medium containing 10% FBS overnight. The cells in the plates were then exposed to series of dilution of indicated agent. After 72 h of incubation, 100 μl of the medium was removed from each of the wells and 50 μl of a 1 mg/ml solution of 3-(4,5-dimethylthiazol-2-yl)-2,5-diphenyltetrazolium bromide (MTT) was added to each well and the cells were incubated for additional 4 h. 200 μl of solution of 0.04 N HCl-isopropanol was added to each well to dissolve the black fromazan participates, and absorbance at 540 nm was measured on a 96-Well.

For a further data set, the system named is LOVO. Kind of data set: Growth inhibition by MTT, LOVO colon cancer cells. Type of data set: cell-based, Human. The following applies: read-out: IC50 LOVO. How it is done: as §1
Another data set concerns PC-3. Kind of data set: Growth inhibition by MTT, PC-3 prostate cancer cells. Type of data set: cell-based, Human. The following applies: read-out: IC50 PC-3. How it is done:
as §1

A further data set deals with DLD-1. Nature of the data set: Growth inhibition by MTT, DLD-1 colon cancer cells. The format is cell-based, Human. How it is done: as §1
as §1, with “FIGS. 3-5 show the anticancer affects” for “Growth inhibitory effects”, “NATURA in MCF-7 breast cancer cells, DLD-1 colon cancer cells,” for “NATURA”, “LNCaP hormone-dependent prostate” for “other agents on human”, “cells. The” for “cells were determined by standard MTT (3-(4,5-dimethylthiazol-2-yl)-2,5-diphenyltetrazolium bromide Test) as described previously. Briefly,”, “fetal bovine serum (FBS)” for “FBS”, “96-Well Microplate Reader. Each experiment was repeated at least three times.” for “96-Well.”

The next data set deals with MCF-7. Kind of data set: Growth inhibition by MTT, MCF-7 breast cancer cells. Type of data set: cell-based, Human. How it is done: as §1
as §1, with “FIGS. 3-5 show the anticancer affects” for “Growth inhibitory effects”, “NATURA in MCF-7 breast cancer cells, DLD-1 colon cancer cells,” for “NATURA”, “LNCaP hormone-dependent prostate” for “other agents on human”, “cells. The” for “cells were determined by standard MTT (3-(4,5-dimethylthiazol-2-yl)-2,5-diphenyltetrazolium bromide Test) as described previously. Briefly,”, “fetal bovine serum (FBS)” for “FBS”, “96-Well Microplate Reader. Each experiment was repeated at least three times.” for “96-Well.”

In a further data set the test system is SKBR-3. Nature of the data set: Growth inhibition by MTT, SKBR-3 breast cancer cells. Type of data set: cell-based, Human. The settings on record: read-out: IC50 SKBR-3. How it is done:
as §1

A further data set deals with LNCaP. Kind of data set: Growth inhibition by MTT, LNCaP prostate cancer cells. The format is cell-based, Human. The following applies: MTT, 72 h exposure (Table 3), read-out: IC50 LNCaP. How it is done: as §1, with “Briefly, cancer cells grown exponentially were aliquoted into 96-well plates at a density of 5000 cells/200 μl per well in RPMI 1640 medium containing 10% FBS overnight.” left out
The cells in the plates were then exposed to series of dilution of indicated agent. After 72 h of incubation, 100 μl of the medium was removed from each of the wells and 50 μl of a 1 mg/ml solution of 3-(4,5-dimethylthiazol-2-yl)-2,5-diphenyltetrazolium bromide (MTT) was added to each well and the cells were incubated for additional 4 h. 200 μl of solution of 0.04 N HCl-isopropanol was added to each well to dissolve the black fromazan participates, and absorbance at 540 nm was measured on a 96-Well Microplate Reader. Each experiment was repeated at least three times.

Data set [1] concerns extracellular signal-regulated protein kinase 2 (ERK2). Nature of the data set: ERK2 activity from treated LNCaP cells. The format is cell-based, Human. The following applies: different concentrations, 15 min. Here is the method: Assay for cyclin dependent kinase activity: HUVEC and LNCaP cells were cultured in EMB (endothelial cell basal medium) and RPMI 1640 containing 10% FBS, respectively. The cells grown exponentially were exposed to indicated concentrations of meisoindigo or NATURA for 24 hr. The cells were harvested, washed, and total proteins extracted as described previously. One hundred μg of the proteins were immuno-precipitated using antibodies against cdk2, cdk4/6, PKC, ERK2 or cyclin D1 overnight at 4° C. in the presence of a cocktail of protease inhibitors. […] The phosphorylated histone H1 (represent cdk activity) was measured by scintillation counting or by SDS-polyacrylaimde gel electrophoresis. The direct inhibitory effects of Meisoindigo and NATURA were also measured by reaction of immuno-purified specific enzyme from untreated cells directly with the Meisoindigo or NATURA. […]
LNCaP cells at exponential growth phase were exposed to different concentrations of NATURA (panel A & B) for 24 hrs, or to PD98059 (panel C) for 15 min. […] Upper panels are the imagines of x-ray films from SDS-PAGE, and lower panels represent the densities of each band from the films determined by an Imagine Densitometer from the same films (expressed as the percent of control).

The next data set deals with human cancer cell lines. Nature of the data set: Growth inhibition by MTT, all tested human cancer cell lines. The format is cell-based. The following applies: range over breast, colon, prostate lines, three day exposure, read-out: IC50, growth inhibitory effects on all tested human cancer cell lines. How it is done:
as §1

For data set [2], the system named is polychromatic erythrocytes from bone marrow. Kind of data set: Induction of micronuclei in rodent animals. The settings on record: mice, 48 mg/kg intraperitoneally daily for 2 days, positive control. The format is in vivo. Here is the method: Cyclophosphamine at dosage of 48 mg/kg was given intraperitoneally daily for 2 days as positive control. Six hrs after the latest administration, the animals were sacrificed, and polychromatic erythrocytes from bone marrow were stained with Giemsa to count micronuclei.

The test system of a further data set is Lewis Lung Cancer. Kind of data set: Anticancer activity in Lewis lung carcinoma animal model. The format is in vivo, C57 mice. The following applies: mice, oral, Indirubin 100 × 9, Meisoindigo 106 × 9 mg/kgxd.
Another data set concerns Walker 256. Kind of data set: Anticancer activity against Walker 256 sarcoma. The settings on record: Walker 256, rat, oral; Indirubin 100 × 9, Meisoindigo 106 × 9 mg/kgxd.
Data set [3] concerns the target T1, immuno-purified cdk2 from LNCaP cells (Homo sapiens, UniProt P24941).
T1 construct: Two hundred mg of total protein extracts were immuno-precipitated with cdk2 antibody overnight at 4° C
Nature of the data set: Direct inhibition of immuno-purified cdk2 activity in vitro. The settings on record: 50 μM, immuno-purified cdk2, positive control. Type of data set: biochemical. Here is the method:
Assay for cyclin dependent kinase activity: HUVEC and LNCaP cells were cultured in EMB (endothelial cell basal medium) and RPMI 1640 containing 10% FBS, respectively. The cells grown exponentially were exposed to indicated concentrations of meisoindigo or NATURA for 24 hr. The cells were harvested, washed, and total proteins extracted as described previously. One hundred μg of the proteins were immuno-precipitated using antibodies against cdk2, cdk4/6, PKC, ERK2 or cyclin D1 overnight at 4° C. in the presence of a cocktail of protease inhibitors. The immuno-precipitates were washed 4 times with protein extraction buffer and once with kinase assay buffer, and reacted with 75 μg/ml histone H1 in the presence of [γ-^32P]-ATP (2.5 μCi/10 μM). The phosphorylated histone H1 (represent cdk activity) was measured by scintillation counting or by SDS-polyacrylaimde gel electrophoresis. The direct inhibitory effects of Meisoindigo and NATURA were also measured by reaction of immuno-purified specific enzyme from untreated cells directly with the Meisoindigo or NATURA.
When immuno-purified cdk2 from LNCaP cells was reacted with histone H1 in the presence of different concentrations of NATURA-β and γ-[^32P]-ATP (2.5 μCi/[…]), the enzyme activity was decreased in a concentration-dependent manner.
Two hundred mg of total protein extracts were immuno-precipitated with cdk2 antibody overnight at 4° C. After 4 washes with PBSTDS, and once with kinase assay buffer, the immuno-purified enzyme was then reacted for 10 min with 10 mg of histone H1 in the presence of different concentrations of NATURA or 50 mM of genistein (as a positive control) and γ-[^32P]-ATP (2.5 mCi/10 mM). The phosphorylated histone H1 (reflecting cdk2 activity) was detected either by SDS-PAGE (upper panel), or radioactive scintillation counting (lower panel, after eliminating free γ-[^32P]-ATP).

Setting [4] is: Homo sapiens, DLD-1, 72 h exposure.
Where [5] appears, read: Homo sapiens, PC-3, MTT, 72 h exposure.

Procedure for Lewis Lung Cancer: (§2) Briefly, C57 mice, body weight between 18 to 22 grams, and rat, body weight between 50 to 55 grams, were randomly divided into several groups, ten of each, respectively. Approximately 2×10^6 of Lewis cancer cells or Walker sarcoma cells were transplanted into mice or rat. […] The animals in the control group were given 0.1 ml saline (drug vehicle, negative control) for the same periods of time as treated group. The animals at end of the treatment were sacrificed and tumors were removed and weighed.
Procedure for Walker 256: Anticancer activity against Walker 256: Wistar rats with body weights between 50 to 55 grams, were randomly divided into several groups, ten of each, respectively. Approximately 2×10^6 of the Walker sarcoma cells were transplanted into a Wistar rat. Twenty-four hours after the transplantation, equal molar dosage (0.384 mM/kg) of NATURA or other sugar derivatives were given orally for 10 days. The animals in the control group were given 0.1 ml saline (drug vehicle, negative control) for the same periods of time as treated group. Twenty-four hours after the last administration, the animals were sacrificed and tumors were removed and weighed.
as §2
In order to assess the anticancer activities of NATURA and other sugar derivatives, Wistard rats transplanted with W256 were given the same molar of the tested compounds (0.384 mM/kg) for the same period of time (10 days).

On to `COc1cccc2c1C(=O)c1c(O)c3c(c(O)c1C2=O)C[C@@](O)(C(C)=O)C[C@@H]3O[C@H]1C[C@H](N)[C@H](O)[C@H](C)O1` [Daunomycin], for which the half-inhibitory concentration (IC50) (commonly the concentration at which inhibition is half-maximal) in the data set on DU145 (Homo sapiens, DU-145, 72 h) was 0.107 ± 0.004 µM; with LOVO (Homo sapiens, LoVo, 72 h), 0.035 ± 0.004 µM; in the data set on PC-3 (Homo sapiens, PC-3, 72 h), 0.24 ± 0.018 µM; in the data set on DLD-1 (setting [4]) it was 0.094 ± 0.013 µM; with MCF-7 (Homo sapiens, MCF7, 72 h exposure), 0.054 ± 0.011 µM; in the data set on SKBR-3 (Homo sapiens, SK-BR-3, 72 h), 0.061 ± 0.0051 µM.

As for `CC(=O)O[C@H]1C(=O)[C@@]2(C)[C@H]([C@H](OC(=O)c3ccccc3)[C@]3(O)C[C@H](OC(=O)[C@H](O)[C@@H](NC(=O)c4ccccc4)c4ccccc4)C(C)=C1C3(C)C)[C@]1(OC(C)=O)CO[C@@H]1C[C@@H]2O` [Paclitaxel], the IC50 in the data set with LOVO (Homo sapiens, LoVo, MTT, 72 h exposure) came to 0.00364 ± 0.00051 µM; in the data set on DLD-1 (setting [4]), 0.00315 ± 0.00037 µM.

On to `CC(C)(C)NC(=O)[C@H]1CC[C@H]2[C@@H]3CC[C@H]4NC(=O)C=C[C@]4(C)[C@H]3CC[C@]12C` [Proscar], for which the concentration for half-maximal inhibition (IC50) came to 40.6 ± 7.12 µM in the data set on LNCaP (Homo sapiens, LNCaP) and 134 ± 12.9 µM with PC-3 (setting [5]).

Regarding `CC(O)(CS(=O)(=O)c1ccc(F)cc1)C(=O)Nc1ccc(C#N)c(C(F)(F)F)c1` (centres unmarked) [Casodex], the 50% inhibitory concentration (IC50) in the data set on LNCaP (Homo sapiens, LNCaP) turned out to be 57.4 ± 7.21 µM; with PC-3 (setting [5]) it was 120 ± 17.3 µM.

On to `COc1cccc(-c2cc(=O)c3ccccc3o2)c1N` [PD98059], for which the “effect on ERK2” value in [1] is “concentration-dependent inhibitory effects”.

For `CS(=O)(=O)Nc1ccc([N+](=O)[O-])cc1OC1CCCCC1` [NS389], the IC50 is over 200 µM in the data set with DU145 (MTT, 72 h exposure); over 200 µM in the data set with LOVO (MTT, 72 h exposure); 65.5 ± 9.46 µM in the data set with LNCaP; over 200 µM with PC-3 (MTT, 72 h exposure); over 200 µM with DLD-1 (72 h exposure); over 200 µM in the data set with human cancer cell lines. Further, the IC50 is over 200 µM with MCF-7 (72 h exposure) and over 200 µM with SKBR-3 (MTT, 72 h exposure).

Molecule `O=P1(N(CCCl)CCCl)NCCCO1` (centres unmarked) [Cyclophosphamine] had a micronuclei in [2] of 41.16 per thousand.

Turning to `O=C1Nc2ccccc2/C1=C1/Nc2ccccc2C1=O` [Indirubin], in the data set on Lewis Lung Cancer, the “Inhibition (%)” value is given as 26.3 ± 2.8% and the “Tumor Size X ± SD” value stood at 2.58 ± 0.21. In the data set with Walker 256, the “Inhibition (%)” value was determined as 59.4 ± 2.9% and the “Tumor Size X ± SD” value turned out to be 3.94 ± 0.71.

With `CC1=C(/C=C/C(C)=C/C=C/C(C)=C/C(=O)O)C(C)(C)CCC1` [Retinoid Acid], the IC50 with DU145 (MTT, 72 h exposure) was over 50 µM; in the data set on LOVO (MTT, 72 h exposure), 75.3 ± 12.5 µM; with LNCaP it was 16 ± 3.19 µM; in the data set with PC-3 (MTT, 72 h exposure) it was over 50 µM; in the data set with DLD-1 (72 h exposure) it was 49.7 ± 5.72 µM; in the data set on human cancer cell lines, at least 21.4 µM. In addition, the concentration for half-maximal inhibition (IC50) is 21.4 ± 3.78 µM in the data set on MCF-7 (72 h exposure) and over 50 µM in the data set with SKBR-3 (MTT, 72 h exposure).

With `O=c1c(-c2ccc(O)cc2)coc2cc(O)cc(O)c12` [genistein], the inhibition (commonly the share of the control response that was lost under treatment) at 50 µM in data set [3] was about 56%.
